From patent US20030119733A1, “Compositions and methods for inhibiting hepatocyte invasion by malarial sporozoites” (New York University, priority 1992, published 2003)
Entries after “also recorded” stand apart in the source; their conditions may differ. Where no end group is shown, it is not given here. The star is where a group is joined. Cam = NC(=O)C*

Columns and labels:
[1] = tested on: binding of CS27IVC to liver sections; assay: Peptide inhibition of CS27IVC binding to frozen liver sections; design: species or system rat; settings: peptide preincubation, up to 500 μg/ml
Description: The procedure was carried out essentially as described by Dukor P. et al., Proc. Natl. Acad. Sci. USA 67:991-997, 1970 and Imai Y. et al., J. Cell. Biol. 111:1225-1232, 1990. Rats were euthanized with CO2. Small pieces of the liver, spleen, heart, brain and lung were removed, snap frozen in liquid nitrogen, embedded in Tissue Tek O.C.T. (Miles, Inc., Naperville, Ill.), and cut into 5 μm sections. Sections were dried for 30 min., fixed for 10 min. in 4% paraformaldehyde, rinsed three times with phosphate-buffered saline (PBS), and either used immediately or stored at 4° C. in 1% BSA, 0.5% Tween, PBS (BSA/TPBS). After blocking with 100 mM glycine (pH 7.2) and with BSA/TPBS, the sections were sequentially incubated at 37° C. with recombinant proteins for 1 hr, 10 μg/ml MAb 2A10 for 45 min., and rat anti-mouse immunoglobulin conjugated to fluorescein isothiocyanate (Boehringer Mannheim, Indianapolis, Ind.) for 45 min. The slides were counterstained for 10 min. with 0.3% Evans blue, rinsed extensively in PBS, and finally observed under a fluorescence microscope. For peptide inhibition experiments, the sections were first incubated with the peptide at various concentrations in BSA/TPBS for 1 hour at 37° C., washed six times with BSA/TPBS, and then stained with 2.5 μg/ml CS recombinant protein as described above. In a few experiments, the tissues were fixed for 10 min. with methanol, acetone, or 4% paraformaldehyde containing 0.5% glutaraldehyde.

[2] = tested on: binding of CSFZ (Cys) to HepG2 cells; assay: Peptide inhibition of CSFZ (Cys) binding to HepG2 cells; design: species or system human; settings: peptides 0-250 μg/ml
Description: For indirect immunofluorescence, HepG2 cells (ATCC number HB8065, Rockville, Md.; Knowles, B. P., et al., Science 209:497-499, 1980) were grown on slides (Cel-Line Associates, Inc., Newfield, N.J.) overnight in minimum essential medium with 10% fetal calf serum (FCS-MEM; GIBCO, Grand Island, N.Y.), 1 mM L-glutamine (GIBCO), 3 mg/ml glucose (Sigma), 1×nonessential amino acids (GIBCO), 50 μg/ml penicillin, and 100 μg/ml streptomycin (GIBCO). For the enzyme-linked immunosorbent assay, 10^5 HepG2 cells were deposited in 96-well Falcon tissue culture plates (Becton Dickinson, Oxnard, Calif.) and grown for 24 hr. in FCS-MEM. The cells were fixed with 4% paraformaldehyde, washed three times with PBS, and stored at 4° C. in BSA/TPBS until use. Before the experiments, plates were blocked for 2 hr. at 37° C. with 1% gelatin, 0.05% Tween in PBS (pH 7.4) (gelatin/TPBS). The cells were sequentially incubated at 37° C. with 50 μl of recombinant protein diluted in gelatin/TPBS for 1 hr. MAb 2A10 at a concentration of 10 μg/ml for 30 min. and goat anti-mouse immunoglobulin conjugated to alkaline phosphatase (Boehringer Mannheim) for 30 min. […] After 15 min., fluorescence was read in a Fluoroskan II plate reader (Flow Lab Inc., McLean, Va.) with excitation filter 350 nm and emission filter 460 nm. In the peptide inhibition experiments, wells were first incubated for 1 hr. at 37° C. with peptides diluted in gelatin/TPBS, washed three times with gelatin/TPBS, and then incubated with recombinant CSFZ (Cys) at a concentration of 2.5 μg/ml for 1 hr. at 37° C.
The same assay system was used to evaluate the ability of the various synthetic peptides to inhibit the binding of CSFZ (Cys) to the HepG2 cells. Paraformaldehyde-fixed immobilized HepG2 cells were pre-incubated with peptides at concentrations between 0 and 250 μg/ml, washed, and incubated with CSFZ (Cys) at 2.5 μg/ml. After washing, the cells were incubated with MAb 2A10 followed by anti-mouse IgG conjugated to alkaline phosphatase. […] Each peptide concentration was assayed in triplicate wells and the means of the fluorescent reading were calculated. […] The cysteines and the sulfhydryl groups were necessary for inhibition (Pf1A, Pf1B and Pf2A were not active). […] The results are shown graphically in FIG. 7 wherein percent inhibition (after subtraction of background) is plotted as a function of peptide concentration. Pf1: open circles; Pf2: dark circles; Pf3: open upright triangles; Pf1A dark square; Pf1B open inverted triangles; Pf2A dark triangle; Pf70 open diamond; Pf25C dark diamond. Standard deviations were no greater than ±5% of the plotted mean.

[3] = tested on: Vivax-2 binding to sulfatide; assay: Inhibition of binding of Vivax-2 to sulfatide; design: species or system P. vivax; settings: for effect on binding to sulfatide: 1 mg/ml
Description: (§1) Solid phase binding assays: Thirty μl of lipids or steroids dissolved in methanol (20-250 μg/ml) were dried into wells of microassay plates (Cat.# 3911—Falcon—Oxnard, Calif.). The plates were then blocked with 1% BSA/PBS pH 7.4 (BSA/PBS) for 30 minutes. Wells were incubated with recombinant protein (or with parasite extract) in PBS/BSA for 1 hour, washed 3 times with BSA/PBS, incubated for 1 hour with monoclonal antibodies 2F2 or 2A10 in BSA/PBS, washed 3 times, and then incubated with (10^5 cpm/well) ^125I protein A (Amersham Corp., Arlington Hts., Ill.). In the case of the P. berghei CS protein, wells were incubated with ^125I labelled mAb 3D11. Wells were washed again and the bound radioactive protein was counted in an LKB gamma-counter (model #1260, Pharmacia, Inc., Gaithersburg, Md.). For inhibition assays, the recombinant proteins were mixed with dilutions of the various polymers in BSA/PBS, the mixture was loaded into the wells of the microtiter plates, and the binding assay performed as above. See also, Roberts, et al. J. Biol. Chem. 260:9405-9411, 1985.

[4] = tested on: Vivax-2 binding to cholesterol-sulfate; assay: Inhibition of binding of Vivax-2 to cholesterol-sulfate; design: species or system P. vivax
Description: as §1

P. berghei sporozoites = assay: Infection assay of HepG2 cells with polymers; type: cell-based
Description: Infection assay: Semiconfluent monolayers of HepG2 cells were grown in 10% FCS/MEM on 8 chamber slides (#4808 Lab-tek -Naperville, Ill.) for 24 hours prior to each experiment. Sporozoites were pre-incubated in media alone or with the various polymers for 15 minutes at 4° C. 5×10^4 sporozoites, in a volume of 10 μl, were added per chamber. After 4 hours of incubation at 37° C., the medium containing the sporozoites was gently aspirated, and 0.5 ml MEM/10% FCS was added. Fresh medium was added at 18 hours and 28 hours, and then cells were fixed with methanol containing 0.3% H2O2 at 48 hours. After fixation, the wells were blocked with 10% FCS/PBS and were incubated with 10 μg/ml of mAb 2E6. Binding of the mAb was detected with a polyclonal goat anti-mouse Ig conjugated to horseradish peroxidase. […] The parasites in each well are counted under a 40× light microscope objective.
The cells were fixed and stained with mAb 2E6, followed by goat-anti-mouse linked to horseradish peroxidase. Numbers represent schizonts counted/20 fields under 40× magnification in a light microscope.

PASVTAGNGIQVRIKPGSAN [Pf1A, Identical to Pf1 except alanine residues are substituted for the two cysteines]
inhibition of the binding of CS27IVC to liver sections [1]: failed to inhibit | inhibition of CSFZ (Cys) binding to HepG2 cells [2]: not active

PXSVTXGNGIQVRIKPGSAN (PC(Cam)SVTC(Cam)GNGIQVRIKPGSAN) [Pf1B]
inhibition of the binding of CS27IVC to liver sections [1]: failed to inhibit | inhibition of CSFZ (Cys) binding to HepG2 cells [2]: not active

chondroitin-sulfate C [CHONDROITIN SULFATE-C]
effect on binding to sulfatide [3]: no effect | % INHIBITION ([3]; inhibitor 1 mg/ml): 0% | % INHIBITION ([4]; inhibitor 10 mg/ml): 0%

CGNGIQVRIKPGSANKPKDE [Pf2]
inhibition of the binding of CS27IVC to liver sections [1]: inhibited the binding of CS27IVC | inhibition of CSFZ (Cys) binding to HepG2 cells [2]: inhibited the CSFZ (Cys) binding; also recorded: competes much less effectively

hyaluronic acid
effect on binding to sulfatide [3]: no effect | % INHIBITION ([3]; inhibitor 1 mg/ml): 0% | % INHIBITION ([4]; inhibitor 1 mg/ml): 0% | % INHIBITION ([4]; inhibitor 10 mg/ml): 28%

PGSANKPKDELDYANDIEKK [Pf3, Contains only a C-proximal moiety of Region II+]
inhibition of the binding of CS27IVC to liver sections [1]: failed to inhibit; also recorded: No inhibition of binding

KPKHKKLKQPADGNPDPNAN [Pf70]
inhibition of the binding of CS27IVC to liver sections [1]: failed to inhibit | inhibition of CSFZ (Cys) binding to HepG2 cells [2]: no inhibitory effect

AGNGIQVRIKPGSANKPKDE [Pf2A, Identical to Pf2 except the first cysteine has been replaced by an alanine residue]
inhibition of the binding of CS27IVC to liver sections [1]: failed to inhibit | inhibition of CSFZ (Cys) binding to HepG2 cells [2]: not active

chondroitin-sulfate B [CHONDROITIN SULFATE-B]
effect on binding to sulfatide [3]: only slightly inhibitory | % INHIBITION ([3]; inhibitor 100 μg/ml): 22.3% | % INHIBITION ([3]; inhibitor 1 mg/ml): 34.3% | % INHIBITION ([4]; inhibitor 0 mg/ml (so in the source)): 51% | % INHIBITION ([4]; inhibitor 100 μg/ml): 0% | % INHIBITION ([4]; inhibitor 1 mg/ml): 27%

dermatan sulfate
effect on binding to sulfatide [3]: no effect

chondroitin-sulfate A [CHONDROITIN SULFATE-A]
effect on binding to sulfatide [3]: no effect | % INHIBITION ([3]; inhibitor 1 mg/ml): 0% | PARASITE # (exoerythrocytic liver stages in 20 microscope fields, duplicate) (P. berghei sporozoites; inhibitor 5 μg/ml present during invasion): 250 | effect on sporozoite invasion (P. berghei sporozoites; present during invasion, 5-50 μg/ml): no effect | % INHIBITION ([4]; inhibitor 1 mg/ml): 0% | % INHIBITION ([4]; inhibitor 10 mg/ml): 16%

keratan-sulfate
effect on binding to sulfatide [3]: no effect | % INHIBITION ([3]; inhibitor 1 mg/ml): 37% | % INHIBITION ([4]; inhibitor 10 mg/ml): 0%

PCSVTCGNGIQVRIKPGSAN [Pf1]
inhibition of the binding of CS27IVC to liver sections [1]: inhibited the binding of CS27IVC | inhibition of CSFZ (Cys) binding to HepG2 cells [2]: inhibited the CSFZ (Cys) binding; also recorded: competes very effectively
